# Measurements reported in ChEMBL document CHEMBL5154702, “Synthesis and biological evaluation of aminobenzamides containing purine moiety as class I histone deacetylases inhibitors” (Bioorg Med Chem, 2022).
# Active and inactive are the calls of the source. The rule behind the calls is not given here.
# How the values were obtained:
# HCT-116 [1] = assay: Cell cycle arrest in human HCT-116 cells assessed as up regulation of Bax expression measured after 24 hrs by Western blot analysis; type: functional, cell-based; settings: dose 0.1-10 µM, DDE = dose-dependent effect
# HCT-116 [2] = assay: Cell cycle arrest in human HCT-116 cells assessed as up regulation of p21 expression at 5 uM by Western blot analysis; type: functional, cell-based; settings: time 6-48 hrs, TDE = time-dependent effect
# HCT-116 [3] = assay: Induction of apoptosis in human HCT-116 cells assessed as early apoptotic cells at 5 uM measured after 24 hrs by Annexin V-FITC/propidium iodide staining based flow cytometry (reference value: 1.87%); type: functional
# HCT-116 [4] = assay: Induction of apoptosis in human HCT-116 cells assessed as early apoptotic cells at 0.5 uM measured after 24 hrs by Annexin V-FITC/propidium iodide staining based flow cytometry (reference value: 1.87%); type: functional
# HCT-116 [5] = assay: Induction of apoptosis in human HCT-116 cells assessed as early apoptotic cells at 1 uM measured after 24 hrs by Annexin V-FITC/propidium iodide staining based flow cytometry (reference value: 1.87%); type: functional
# HCT-116 [6] = assay: Cell cycle arrest in human HCT-116 cells assessed as accumulation of cells at G2/M phase at 10 uM measured after 24 hrs by propidium iodide staining based flow cytometry (reference value: 22.74%); type: functional
# HCT-116 [7] = assay: Cell cycle arrest in human HCT-116 cells assessed as increase in accumulation of cells at G0/G1 phase measured after 24 hrs by propidium iodide staining based flow cytometry; type: functional; settings: dose 0.1-10 µM, DDE = dose-dependent effect
# HCT-116 [8] = assay: Cell cycle arrest in human HCT-116 cells assessed as down regulation of CDK2 expression at 5 uM by Western blot analysis; type: functional, cell-based; settings: time 6-48 hrs, TDE = time-dependent effect
# K562 = assay: cells; type: functional, cell-based; settings: Homo sapiens, K562, 48 h
# [9] = target: T1, Histone deacetylase (Homo sapiens) (UniProt Q13547+O15379+Q9UBN7+Q92769+Q9UQL6+Q8WUI4+Q9BY41+Q96DB2+P56524+Q9UKV0+Q969S8); assay: Potency index, ratio of MS-275 IC50 to test compound IC50 for inhibition of HDAC in human HeLa cell nuclear extracts using color de Lys as substrate
# HCT-116 [10] = assay: Cell cycle arrest in human HCT-116 cells assessed as down regulation of CDK2 expression measured after 24 hrs by Western blot analysis; type: functional, cell-based; settings: dose 0.1-10 µM, DDE = dose-dependent effect
# [11] = target: Histone deacetylase 1/2/3 (Homo sapiens) (UniProt Q13547+O15379+Q92769); assay: Inhibition of HDAC1/HDAC2/HDAC3 in human HCT-116 cells assessed as increase in accumulation of acetylated H4K5 measured after 24 hrs by Western blot analysis; type: cell-based; settings: dose 0.1-10 µM, DDE = dose-dependent effect
# [12] = Half life in human liver microsomes at 13.8 uM by HPLC analysis; type: ADME, Microsome
# HCT-116 [13] = assay: Induction of apoptosis in human HCT-116 cells assessed as necrotic cells at 1 uM measured after 24 hrs by Annexin V-FITC/propidium iodide staining based flow cytometry (reference value: 7.39%); type: functional
# Histone deacetylase = type: cell-based, Homo sapiens; settings: hela
# HCT-116 [14] = assay: Induction of apoptosis in human HCT-116 cells assessed as viable cells at 5 uM measured after 24 hrs by Annexin V-FITC/propidium iodide staining based flow cytometry (reference value: 87.3%); type: functional; settings: read-out: Activity
# Histone deacetylase 1 = Histone deacetylase 1 (Homo sapiens, UniProt Q13547); assay: Potency index, ratio of MS-275 IC50 to test compound IC50 for inhibition of recombinant human full-length C-terminal Flag-His6-tagged HDAC1 (1 to 482 residues) expressed in Sf9 insect cells
# Histone deacetylase 1, sequence (Q13547 whole entry, the tested form may be a part): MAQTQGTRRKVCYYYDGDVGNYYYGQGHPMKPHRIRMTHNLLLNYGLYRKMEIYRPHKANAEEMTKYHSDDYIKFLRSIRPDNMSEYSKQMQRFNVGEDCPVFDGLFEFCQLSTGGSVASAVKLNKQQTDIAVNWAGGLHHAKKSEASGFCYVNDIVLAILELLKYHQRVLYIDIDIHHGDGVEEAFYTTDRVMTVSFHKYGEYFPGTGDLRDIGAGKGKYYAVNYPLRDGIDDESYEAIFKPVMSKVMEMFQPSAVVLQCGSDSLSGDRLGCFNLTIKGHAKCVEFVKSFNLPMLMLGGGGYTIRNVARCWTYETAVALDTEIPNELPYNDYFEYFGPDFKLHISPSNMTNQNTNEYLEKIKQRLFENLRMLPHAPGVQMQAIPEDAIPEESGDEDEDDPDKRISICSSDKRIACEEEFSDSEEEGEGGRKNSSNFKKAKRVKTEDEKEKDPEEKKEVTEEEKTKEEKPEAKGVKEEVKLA
# HCT-116 [15] = assay: Cell cycle arrest in human HCT-116 cells assessed as accumulation of cells at G0/G1 phase at 10 uM measured after 12 hrs by propidium iodide staining based flow cytometry (reference value: 58.05%); type: functional
# MDA-MB-231 [16] = assay: Potency index, ratio of MS-275 IC50 to test compound IC50 for antiproliferative activity against human MDA-MB-231 cells; type: functional
# HCT-116 [17] = assay: Cell cycle arrest in human HCT-116 cells assessed as down regulation of cyclin D1 expression at 5 uM by Western blot analysis; type: functional, cell-based; settings: time 6-48 hrs, TDE = time-dependent effect
# HCT-116 [18] = assay: Cell cycle arrest in human HCT-116 cells assessed as accumulation of cells at G2/M phase at 5 uM measured after 24 hrs by propidium iodide staining based flow cytometry (reference value: 22.74%); type: functional
# HCT-116 [19] = assay: Cell cycle arrest in human HCT-116 cells assessed as down regulation of Bcl-2 expression at 5 uM by Western blot analysis; type: functional, cell-based; settings: time 6-48 hrs, TDE = time-dependent effect
# SGC-7901 = assay: Antiproliferative activity against human SGC-7901 cells measured after 48 hrs by MTT assay; type: functional, cell-based; settings: SGC-7901, 48 h
# HCT-116 [20] = assay: Cell cycle arrest in human HCT-116 cells assessed as accumulation of cells at G0/G1 phase at 5 uM measured after 24 hrs by propidium iodide staining based flow cytometry (reference value: 58.05%); type: functional
# HCT-116 [21] = assay: Induction of cell morphological changes in human HCT-116 cells assessed as cell shrinkage at 0.5 to 5 uM measured after 24 hrs by phase contrast microscopy; type: functional, cell-based; settings: dose 0.5-5 µM
# [22] = Half life in rat liver microsomes at 13.8 uM by HPLC analysis; type: ADME, Microsome
# [23] = Intrinsic clearance in dog liver microsomes assessed per mg protein at 13.8 uM by HPLC analysis; type: ADME, Canis lupus familiaris, Microsome
# [24] = Intrinsic clearance in human liver microsomes assessed per mg protein at 13.8 uM by HPLC analysis; type: ADME, Microsome
# HCT-116 [25] = assay: Induction of cell morphological changes in human HCT-116 cells assessed as […] deformation at 0.5 to 5 uM measured after 24 hrs by phase contrast microscopy; type: functional, cell-based; settings: dose 0.5-5 µM
# MDA-MB-231 [26] = assay: Antiproliferative activity against human MDA-MB-231 cells measured after 48 hrs by MTT assay; type: functional, cell-based; settings: MDA-MB-231, 48 h
# HCT-116 [27] = assay: Induction of cell morphological changes in human HCT-116 cells assessed as cell fragmentation at 0.5 to 5 uM measured after 24 hrs by phase contrast microscopy; type: functional, cell-based; settings: dose 0.5-5 µM
# HCT-116 [28] = assay: Induction of apoptosis in human HCT-116 cells assessed as late apoptotic cells at 0.5 uM measured after 24 hrs by Annexin V-FITC/propidium iodide staining based flow cytometry (reference value: 3.43%); type: functional
# [29] = target: T1, Histone deacetylase (Homo sapiens); assay: Potency index, ratio of SAHA IC50 to test compound IC50 for inhibition of HDAC in human HeLa cell nuclear extracts using color de Lys as substrate
smiles,measurement,setting,value
CCCCNc1nc(Cl)nc2c1ncn2Cc1ccc(C(=O)Nc2ccccc2N)cc1,Activity,HCT-116 [1],Dde
same,Activity,HCT-116 [2],Tde
same,Activity,HCT-116 [3],70.6%
same,Activity,HCT-116 [4],33.1%
same,Activity,HCT-116 [5],49.4%
same,Activity,HCT-116 [6],11.15%
same,Activity,HCT-116 [7],Dde
same,Activity,HCT-116 [8],Tde
same,IC50,K562,120 nM
same,Ratio IC50,[9],19
same,Activity,HCT-116 [10],Dde
same,inhibition,[11],Dde
same,half-life at 13.8 µM,[12],4.62 h
same,Activity,HCT-116 [13],1.2%
same,IC50,Histone deacetylase,27.5 nM
same,viability at 5 µM,HCT-116 [14],18.4%
same,Ratio IC50,Histone deacetylase 1,12
same,Activity,HCT-116 [15],71.11%
same,Ratio IC50,MDA-MB-231 [16],4
same,Activity,HCT-116 [17],Tde
same,Activity,HCT-116 [18],14.39%
same,Activity,HCT-116 [19],Tde
same,IC50,SGC-7901,1520 nM
same,Activity,HCT-116 [20],67.96%
same,Activity,HCT-116 [21],Active
same,half-life at 13.8 µM,[22],1.2 h
same,CLint,[23],3.1 µL/min/mg
same,CLint,[24],2.5 µL/min/mg
same,Activity,HCT-116 [25],Active
same,IC50,MDA-MB-231 [26],380 nM
same,Activity,HCT-116 [27],Active
same,Activity,HCT-116 [28],2.12%
same,Ratio IC50,[29],4
